Measured values as given in paper PMC8213057, “Targeting ALK2: An Open Science Approach to Developing Therapeutics for the Treatment of Diffuse Intrinsic Pontine Glioma” (Journal of Medicinal Chemistry, 2020).
Several values for one entry are separate records, joined by “and”; a condition that tells them apart may be missing. Equal entries are not always repeated.

Columns and labels:
YES/YES1 = YES/YES1 (Homo sapiens, UniProt P07947); conditions: 1 μM; Run 1, Run 2
MAPKAPK2 = MAPKAPK2 (Homo sapiens, UniProt P49137); experiment: biochemical; conditions: read-out: % enzyme activity, 1 μM; Run 1, Run 2
Chain of MAPKAPK2 (P49137 whole entry): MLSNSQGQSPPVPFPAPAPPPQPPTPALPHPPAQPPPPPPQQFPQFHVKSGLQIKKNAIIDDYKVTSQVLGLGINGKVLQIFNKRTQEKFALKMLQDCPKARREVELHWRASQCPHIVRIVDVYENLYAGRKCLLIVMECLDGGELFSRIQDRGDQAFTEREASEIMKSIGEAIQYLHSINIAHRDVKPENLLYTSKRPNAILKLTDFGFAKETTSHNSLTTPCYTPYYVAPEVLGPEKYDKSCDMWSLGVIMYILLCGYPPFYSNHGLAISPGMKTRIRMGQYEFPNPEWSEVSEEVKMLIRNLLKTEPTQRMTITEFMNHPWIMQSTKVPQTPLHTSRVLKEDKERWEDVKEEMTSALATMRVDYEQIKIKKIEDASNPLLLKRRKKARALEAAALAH

PIM3 = PIM3 (Homo sapiens, UniProt Q86V86); conditions: 1 μM; Run 1, Run 2
MARK3 = MARK3 (Homo sapiens, UniProt P27448); conditions: 1 μM; Run 1, Run 2
Chain of MARK3 (P27448 whole entry): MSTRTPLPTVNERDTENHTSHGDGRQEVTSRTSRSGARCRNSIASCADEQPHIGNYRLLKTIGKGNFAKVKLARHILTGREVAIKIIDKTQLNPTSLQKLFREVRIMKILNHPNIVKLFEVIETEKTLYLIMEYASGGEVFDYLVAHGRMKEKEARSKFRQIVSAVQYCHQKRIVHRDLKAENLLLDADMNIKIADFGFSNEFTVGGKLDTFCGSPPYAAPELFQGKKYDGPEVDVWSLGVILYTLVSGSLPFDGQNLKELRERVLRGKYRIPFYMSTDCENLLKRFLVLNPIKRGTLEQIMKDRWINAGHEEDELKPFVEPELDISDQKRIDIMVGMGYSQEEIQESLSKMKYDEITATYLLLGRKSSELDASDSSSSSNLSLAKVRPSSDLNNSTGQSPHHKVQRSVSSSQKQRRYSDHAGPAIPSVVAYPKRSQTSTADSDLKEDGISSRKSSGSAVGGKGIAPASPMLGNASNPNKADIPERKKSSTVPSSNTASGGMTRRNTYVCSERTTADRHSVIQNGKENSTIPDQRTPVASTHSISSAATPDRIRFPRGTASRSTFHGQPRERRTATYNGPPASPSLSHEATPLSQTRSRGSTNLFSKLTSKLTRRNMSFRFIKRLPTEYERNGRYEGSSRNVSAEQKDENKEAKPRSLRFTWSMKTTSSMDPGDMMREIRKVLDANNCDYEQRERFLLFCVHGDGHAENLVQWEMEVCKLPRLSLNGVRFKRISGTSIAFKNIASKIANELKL

ERK1 = ERK1 (Homo sapiens, UniProt P27361); conditions: 1 μM; Run 1, Run 2
Chain of ERK1 (P27361 whole entry): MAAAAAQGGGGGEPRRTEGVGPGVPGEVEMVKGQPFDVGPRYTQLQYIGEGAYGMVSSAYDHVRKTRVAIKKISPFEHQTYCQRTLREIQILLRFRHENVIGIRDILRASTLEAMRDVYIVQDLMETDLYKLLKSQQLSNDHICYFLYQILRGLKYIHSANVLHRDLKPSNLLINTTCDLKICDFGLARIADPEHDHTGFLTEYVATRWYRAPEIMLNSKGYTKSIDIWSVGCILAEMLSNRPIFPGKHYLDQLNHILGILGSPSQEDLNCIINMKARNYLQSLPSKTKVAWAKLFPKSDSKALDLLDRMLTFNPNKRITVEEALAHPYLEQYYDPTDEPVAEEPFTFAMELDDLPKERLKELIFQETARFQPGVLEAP

CDK2/cyclin A = CDK2/cyclin A (Homo sapiens, UniProt P24941); experiment: biochemical; conditions: read-out: % enzyme activity, 1 μM; Run 1, Run 2
YSK4/MAP3K19 = target: T1, YSK4/MAP3K19 (Homo sapiens, UniProt Q56UN5); conditions: 1 μM; Run 1, Run 2
T1 sequence (Q56UN5 1-1328): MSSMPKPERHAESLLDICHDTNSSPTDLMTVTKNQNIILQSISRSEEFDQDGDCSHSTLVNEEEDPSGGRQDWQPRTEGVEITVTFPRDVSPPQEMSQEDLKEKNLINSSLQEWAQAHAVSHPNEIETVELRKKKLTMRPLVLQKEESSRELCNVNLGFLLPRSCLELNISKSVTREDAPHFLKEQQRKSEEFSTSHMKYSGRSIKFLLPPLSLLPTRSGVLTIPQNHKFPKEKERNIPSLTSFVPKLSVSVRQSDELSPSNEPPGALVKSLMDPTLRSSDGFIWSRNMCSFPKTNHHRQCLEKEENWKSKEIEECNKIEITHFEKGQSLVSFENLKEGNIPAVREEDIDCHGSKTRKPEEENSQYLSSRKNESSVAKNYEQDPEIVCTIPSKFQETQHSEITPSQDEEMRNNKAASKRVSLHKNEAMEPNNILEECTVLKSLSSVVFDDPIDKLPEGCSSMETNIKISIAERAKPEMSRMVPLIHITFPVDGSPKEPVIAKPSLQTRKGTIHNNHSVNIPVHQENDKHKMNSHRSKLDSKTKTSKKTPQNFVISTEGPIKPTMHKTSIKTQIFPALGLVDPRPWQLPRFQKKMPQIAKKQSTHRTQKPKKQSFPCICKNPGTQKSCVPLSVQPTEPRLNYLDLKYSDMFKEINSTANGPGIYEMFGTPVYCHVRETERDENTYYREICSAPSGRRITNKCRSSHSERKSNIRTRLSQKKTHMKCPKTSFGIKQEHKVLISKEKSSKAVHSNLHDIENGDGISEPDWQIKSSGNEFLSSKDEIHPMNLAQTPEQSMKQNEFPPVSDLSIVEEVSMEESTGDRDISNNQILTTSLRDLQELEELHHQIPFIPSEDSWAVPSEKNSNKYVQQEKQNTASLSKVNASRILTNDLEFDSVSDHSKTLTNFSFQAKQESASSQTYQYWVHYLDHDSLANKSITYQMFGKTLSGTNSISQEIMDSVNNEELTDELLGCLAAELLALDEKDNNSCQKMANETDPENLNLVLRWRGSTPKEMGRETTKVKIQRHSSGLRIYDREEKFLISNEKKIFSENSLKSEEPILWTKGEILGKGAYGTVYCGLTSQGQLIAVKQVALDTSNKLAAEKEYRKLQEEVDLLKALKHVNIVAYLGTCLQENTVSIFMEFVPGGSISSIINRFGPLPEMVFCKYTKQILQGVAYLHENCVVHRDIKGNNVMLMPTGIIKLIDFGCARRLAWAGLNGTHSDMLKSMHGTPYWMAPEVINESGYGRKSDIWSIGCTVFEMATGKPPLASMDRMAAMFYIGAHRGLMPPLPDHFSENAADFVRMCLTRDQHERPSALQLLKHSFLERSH

MAPKAPK3 = MAPKAPK3 (Homo sapiens, UniProt Q16644); experiment: biochemical; conditions: read-out: % enzyme activity, 1 μM; Run 1, Run 2
Chain of MAPKAPK3 (Q16644 whole entry): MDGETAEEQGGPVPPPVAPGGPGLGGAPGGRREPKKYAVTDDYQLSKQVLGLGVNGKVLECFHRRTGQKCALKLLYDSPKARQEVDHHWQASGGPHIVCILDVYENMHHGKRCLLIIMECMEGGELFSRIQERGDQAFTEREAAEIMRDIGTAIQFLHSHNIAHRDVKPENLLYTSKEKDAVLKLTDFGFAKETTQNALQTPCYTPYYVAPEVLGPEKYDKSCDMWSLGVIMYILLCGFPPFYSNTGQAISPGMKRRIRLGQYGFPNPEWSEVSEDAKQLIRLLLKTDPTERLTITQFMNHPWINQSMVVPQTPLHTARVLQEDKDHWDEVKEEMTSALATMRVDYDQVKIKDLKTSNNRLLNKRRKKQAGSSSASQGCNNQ

BRK = BRK (Homo sapiens, UniProt Q13882); experiment: biochemical; conditions: read-out: % enzyme activity, 1 μM; Run 1, Run 2
Chain of BRK (Q13882 whole entry): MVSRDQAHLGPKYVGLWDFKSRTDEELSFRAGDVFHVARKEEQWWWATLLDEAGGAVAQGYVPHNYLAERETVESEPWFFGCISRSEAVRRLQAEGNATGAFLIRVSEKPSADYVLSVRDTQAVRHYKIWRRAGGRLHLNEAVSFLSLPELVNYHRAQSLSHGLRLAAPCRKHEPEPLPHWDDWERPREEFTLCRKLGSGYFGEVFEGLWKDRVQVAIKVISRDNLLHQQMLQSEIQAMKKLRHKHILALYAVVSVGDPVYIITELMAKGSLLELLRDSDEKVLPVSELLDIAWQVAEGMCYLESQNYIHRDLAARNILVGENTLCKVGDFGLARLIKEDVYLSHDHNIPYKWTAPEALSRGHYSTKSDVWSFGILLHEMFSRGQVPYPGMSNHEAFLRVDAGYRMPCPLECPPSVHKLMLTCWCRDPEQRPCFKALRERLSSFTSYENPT

CAMK1g = CAMK1g (Homo sapiens, UniProt Q96NX5); conditions: 1 μM; Run 1, Run 2
Chain of CAMK1g (Q96NX5 whole entry): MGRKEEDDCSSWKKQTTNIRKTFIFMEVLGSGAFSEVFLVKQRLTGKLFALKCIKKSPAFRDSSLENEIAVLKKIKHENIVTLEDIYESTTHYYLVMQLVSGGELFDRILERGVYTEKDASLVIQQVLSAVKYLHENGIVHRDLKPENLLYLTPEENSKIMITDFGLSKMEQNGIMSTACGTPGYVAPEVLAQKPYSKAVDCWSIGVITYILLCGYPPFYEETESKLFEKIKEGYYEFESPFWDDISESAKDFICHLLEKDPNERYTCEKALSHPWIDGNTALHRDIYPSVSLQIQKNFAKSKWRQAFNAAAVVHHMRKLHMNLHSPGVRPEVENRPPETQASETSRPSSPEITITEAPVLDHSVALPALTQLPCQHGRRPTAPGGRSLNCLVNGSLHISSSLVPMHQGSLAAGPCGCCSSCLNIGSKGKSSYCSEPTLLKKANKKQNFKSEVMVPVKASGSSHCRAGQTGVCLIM

ERBB4/HER4 = ERBB4/HER4 (Homo sapiens, UniProt Q15303); experiment: biochemical; conditions: read-out: % enzyme activity, 1 μM; Run 1, Run 2
Chain of ERBB4/HER4 (Q15303 26-1308): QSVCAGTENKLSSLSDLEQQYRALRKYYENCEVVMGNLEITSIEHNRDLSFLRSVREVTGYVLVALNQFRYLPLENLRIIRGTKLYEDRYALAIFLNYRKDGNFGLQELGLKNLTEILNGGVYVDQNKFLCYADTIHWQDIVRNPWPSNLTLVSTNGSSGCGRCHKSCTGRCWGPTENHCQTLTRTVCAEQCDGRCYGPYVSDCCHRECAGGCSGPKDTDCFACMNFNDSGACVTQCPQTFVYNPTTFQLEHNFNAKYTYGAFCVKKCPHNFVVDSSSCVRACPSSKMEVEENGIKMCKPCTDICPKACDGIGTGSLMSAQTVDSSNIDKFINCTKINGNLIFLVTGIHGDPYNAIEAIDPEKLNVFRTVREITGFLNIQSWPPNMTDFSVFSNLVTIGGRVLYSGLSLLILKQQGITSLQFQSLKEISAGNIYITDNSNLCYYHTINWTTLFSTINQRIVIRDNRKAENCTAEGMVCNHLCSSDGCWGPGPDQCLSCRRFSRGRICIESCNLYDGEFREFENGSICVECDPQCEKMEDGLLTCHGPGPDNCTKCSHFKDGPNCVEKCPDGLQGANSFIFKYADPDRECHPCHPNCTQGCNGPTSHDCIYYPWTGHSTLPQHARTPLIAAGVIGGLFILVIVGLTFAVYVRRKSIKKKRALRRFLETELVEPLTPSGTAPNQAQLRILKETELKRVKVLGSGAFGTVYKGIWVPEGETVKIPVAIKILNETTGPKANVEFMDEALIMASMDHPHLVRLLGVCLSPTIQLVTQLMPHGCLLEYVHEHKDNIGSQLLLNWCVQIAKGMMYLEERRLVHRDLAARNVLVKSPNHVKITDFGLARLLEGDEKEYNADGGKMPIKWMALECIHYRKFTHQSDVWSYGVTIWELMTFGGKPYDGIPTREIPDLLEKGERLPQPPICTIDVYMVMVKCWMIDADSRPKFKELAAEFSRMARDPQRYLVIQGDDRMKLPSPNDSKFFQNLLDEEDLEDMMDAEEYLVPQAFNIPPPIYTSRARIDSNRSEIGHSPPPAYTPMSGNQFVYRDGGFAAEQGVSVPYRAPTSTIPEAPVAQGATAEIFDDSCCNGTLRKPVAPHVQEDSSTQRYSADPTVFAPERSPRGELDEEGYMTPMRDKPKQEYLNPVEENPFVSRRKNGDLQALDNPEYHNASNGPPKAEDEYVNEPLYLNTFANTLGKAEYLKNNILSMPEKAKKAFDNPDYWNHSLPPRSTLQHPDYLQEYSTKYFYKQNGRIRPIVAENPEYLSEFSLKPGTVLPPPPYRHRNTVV

MKK6 = target: T2, MKK6 (Homo sapiens, UniProt P52564); experiment: biochemical; conditions: read-out: % enzyme activity, 1 μM; Run 1, Run 2
T2 sequence (P52564 1-334): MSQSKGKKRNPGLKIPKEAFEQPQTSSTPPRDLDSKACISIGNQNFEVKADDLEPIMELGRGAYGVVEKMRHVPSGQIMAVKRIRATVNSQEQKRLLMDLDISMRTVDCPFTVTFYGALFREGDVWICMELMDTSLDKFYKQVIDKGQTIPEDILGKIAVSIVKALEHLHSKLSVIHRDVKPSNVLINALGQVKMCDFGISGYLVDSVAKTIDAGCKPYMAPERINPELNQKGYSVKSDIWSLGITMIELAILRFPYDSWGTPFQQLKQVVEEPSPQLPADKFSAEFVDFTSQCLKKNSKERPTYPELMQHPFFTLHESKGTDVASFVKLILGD

MST2/STK3 = target: T3, MST2/STK3 (Homo sapiens, UniProt Q13188); experiment: biochemical; conditions: read-out: % enzyme activity, 1 μM; Run 1, Run 2
T3 sequence (Q13188 1-491): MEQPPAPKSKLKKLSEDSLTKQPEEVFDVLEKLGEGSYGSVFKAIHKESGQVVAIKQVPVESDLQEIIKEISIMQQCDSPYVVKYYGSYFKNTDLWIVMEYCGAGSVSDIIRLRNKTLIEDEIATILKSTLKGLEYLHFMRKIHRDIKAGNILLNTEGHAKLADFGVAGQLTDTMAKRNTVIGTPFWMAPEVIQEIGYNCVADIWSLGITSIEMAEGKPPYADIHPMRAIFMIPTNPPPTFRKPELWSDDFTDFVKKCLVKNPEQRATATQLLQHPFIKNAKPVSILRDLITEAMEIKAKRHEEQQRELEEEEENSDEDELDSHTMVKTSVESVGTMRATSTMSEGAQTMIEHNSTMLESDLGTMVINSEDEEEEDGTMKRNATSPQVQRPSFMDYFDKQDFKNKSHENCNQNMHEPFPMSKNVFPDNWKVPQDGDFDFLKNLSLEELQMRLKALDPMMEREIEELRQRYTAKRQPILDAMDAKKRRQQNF

Chain of YES/YES1 (P07947 whole entry): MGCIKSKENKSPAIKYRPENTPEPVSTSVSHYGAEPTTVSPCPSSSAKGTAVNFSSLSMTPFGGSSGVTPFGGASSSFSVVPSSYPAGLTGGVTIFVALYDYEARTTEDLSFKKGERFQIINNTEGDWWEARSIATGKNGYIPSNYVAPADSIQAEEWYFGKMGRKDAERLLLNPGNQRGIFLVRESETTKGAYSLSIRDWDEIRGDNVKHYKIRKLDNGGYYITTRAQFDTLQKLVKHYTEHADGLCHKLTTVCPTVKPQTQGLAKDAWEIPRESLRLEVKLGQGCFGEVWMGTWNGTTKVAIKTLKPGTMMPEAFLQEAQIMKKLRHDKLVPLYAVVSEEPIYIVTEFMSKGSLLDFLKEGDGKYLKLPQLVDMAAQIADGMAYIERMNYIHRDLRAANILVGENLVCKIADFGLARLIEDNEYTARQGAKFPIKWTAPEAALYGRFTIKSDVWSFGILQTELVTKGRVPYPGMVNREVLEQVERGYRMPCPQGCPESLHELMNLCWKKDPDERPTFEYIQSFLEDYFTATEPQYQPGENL

For `COc1cc(-c2cncc(-c3ccc(N4CCN(C)CC4)cc3)c2C)cc(F)c1C(N)=O` [Compound 26a, 2-Fluoro-6-methoxy-4-(4-methyl-5-(4-(4-methylpiperazin-1-yl)phenyl)pyridin-3-yl)benzamide], the “% enzyme activity” value (YES/YES1) was 104.56%, the remaining activity at 1 µM (MAPKAPK2) was 103% and the CYP inhibition (CYP2C8) was > 50 µM. For the same molecule, the “% enzyme activity” value (PIM3) was 99.10%, the “% enzyme activity” value (MARK3) was 82.91% and the “% enzyme activity” value (ERK1) was 94.73%. For the same molecule, the remaining activity at 1 µM (CDK2/cyclin A) was 100%, the “% enzyme activity” value (YSK4/MAP3K19) was 97.39% and the remaining activity at 1 µM (MAPKAPK3) was 99.5%. For the same molecule, the remaining activity at 1 µM (BRK) was 58.3%, the “% enzyme activity” value (CAMK1g) was 99.10% and the remaining activity at 1 µM (ERBB4/HER4) was 99.5%. For the same molecule, the remaining activity at 1 µM (MKK6) was 84.4%, the remaining activity at 1 µM (MST2/STK3) was 95.6% and the % enzyme activity at 1 μM (DYRK1/DYRK1A) was 43.3% and 43.1%.
With `COc1cc(-c2cncc(-c3ccc(N4C[C@@H](C)N(C)[C@@H](C)C4)cc3)c2C)cc(F)c1C(N)=O` [Compound 26c, 2-Fluoro-6-methoxy-4-(4-methyl-5-(4-((3R,5S)-3,4,5-trimethylpiperazin-1-yl)phenyl)pyridin-3-yl)benzamide] the “% enzyme activity” value (YES/YES1) was 108.87%, the remaining activity at 1 µM (MAPKAPK2) was 95.4% and the CYP inhibition (CYP2C8) was > 50 µM. The “% enzyme activity” value (PIM3) was 106.19%, the “% enzyme activity” value (MARK3) was 93.66% and the “% enzyme activity” value (ERK1) was 94.56%. The remaining activity at 1 µM (CDK2/cyclin A) was 100%, the “% enzyme activity” value (YSK4/MAP3K19) was 96.61% and the remaining activity at 1 µM (MAPKAPK3) was 97.2%. For the same molecule, the remaining activity at 1 µM (BRK) was 73.9%, the “% enzyme activity” value (CAMK1g) was 107.66% and the remaining activity at 1 µM (ERBB4/HER4) was 94.9%. The remaining activity at 1 µM (MKK6) was 79.7%, the remaining activity at 1 µM (MST2/STK3) was 102% and the % enzyme activity at 1 μM (DYRK1/DYRK1A) was 62.4% and 60%.
